Laboratory results: publication PMC7406636, “In vivo and in silico characterization of apocynin in reducing organ oxidative stress: A pharmacokinetic and pharmacodynamic study” (Pharmacology Research & Perspectives, 2020)
Like-named read-outs stand apart in the source and are kept apart here.

Experiments:
Nox2 = test: Brain Nox2 expression by immunofluorescence, HFD mouse model; format: in vivo; details: HFD brain sections, apocynin 5 mmol/L in drinking water, vs HFD
Procedure: The experiments were performed exactly as described previously. ^23 Midbrain (containing hippocampus and ventral tegmental area regions) cryosections were used for the experiments. Primary antibodies were used at 1:250 dilution. Bovine serum albumin (2%) was used in the place of primary antibodies as a negative control. Biotin‐conjugated secondary antibody was used at 1:1000 dilution. Specific binding of antibodies was detected by streptavidin‐Cy3. Images were captured using a Nikon fluorescence microscope (Eclipse Ti2‐E). Fluorescence intensities were quantified as described above.

[1] = parameters: method as in PMID 25140304; details: rats, intraperitoneal injection, urine collected at 20 hours; cited from earlier work
[2] = LogBB calculation, Log (Cbrain/Cplasma); format: in vivo, mouse
Procedure: LogBB of apocynin was calculated as described previously ^22 using the equation: LogBB = Log (Cbrain/Cplasma). We used the values from 1 to 30 minutes detected in both plasma and brain tissues for LogBB calculation since apocynin plasma concentration was fallen to ~10 ng/mL (limit of quantification) after 30 minutes of iv injection, n = 3 mice/per time point.

[3] = Body weight in HFD-induced obesity and accelerated aging mouse model; format: in vivo; details: HFD 16 weeks, apocynin 5 mmol/L in drinking water, vs HFD without apocynin
Procedure: Apocynin was supplied in drinking water (5 mmol/L) for the treatment group. Body weights were measured weekly. Mice were sacrificed at 11 months of age and organs were harvested for further experiments. […] Male mice at 7 months of age were randomly assigned (n = 6/per group) to a HFD: 45% kcal fat, 20% kcal protein and 35% kcal carbohydrate (Special Diets Services), or a NCD: 9.3% kcal fat, 25.9% kcal protein, and 64.8% kcal carbohydrate (LabDiet Ltd) for 16 weeks. Apocynin was supplied in drinking water (5 mmol/L). Body weights were measured weekly. Mice (at 11 months) were fasted 8 hours before being sacrificed by an overdose of pentobarbital. The body weights were recorded and organs were harvested.

[4] = test system: O2·‐ production in tissue homogenates; test: O2·- production in tissue homogenates by lucigenin-chemiluminescence after iv injection (PD profile); format: in vivo, mouse; details: iv 5 mg/kg
Procedure: All studies were performed in accordance with the protocols approved by the Home Office under the Animals (Scientific Procedures) Act 1986, UK. For the PKPD study, male CD1 mice (Charles River Ltd) at 12 weeks of age with a body weight range between 25 and 30 g were used for the study. Mice were fasted 12 hours before bolus iv injection of apocynin at 5 mg/kg body weight (dosing volume 5 mL/kg) via a lateral tail vein. Control mice were injected with vehicle (solvent of apocynin) at each time points. Four mice/per time points were sacrificed at 0, 1, 2.5, 5, 15, 30, 60 minutes and then at 3, 6, 12, and 24 hours after iv injection of apocynin. Blood samples were collected and centrifuged at 2000 g, 4°C for 10 minutes for plasma collection. Urine samples were collected from bladders. Tissues were harvested for further experiments. ROS production was measured using tissue homogenates by three complementary techniques: lucigenin (5 µmol/L)‐chemiluminescence (Molecular Devices); DHE (2 µmol/L) fluorescence on brain tissue sections, and brain tissue lipid peroxidation by malondialdehyde (MDA) assay as described previously. ^5 The specificity of detection of O2·‐ was confirmed by adding tiron (10 mmol/L), a non‐enzymatic O2·‐ scavenger. The enzymatic sources of O2·‐ production were identified using inhibitors targeting nitric oxide synthase (L‐N^G‐Nitro arginine methyl ester, L‐NAME, 100 μmol/L), the mitochondrial complex‐1 enzymes (rotenone, 50 μmol/L), xanthine oxidase (oxypurinol, 250 μmol/L), flavo‐proteins (diphenyleneiodonium, DPI, 20 μmol/L), or superoxide dismutase (SOD) (200 U/mL). The DHE fluorescence was captured using a Nikon fluorescence microscope (Eclipse Ti2‐E). The fluorescence intensity was quantified from at least three random images per section with three sections/per sample.

[5] = parameters: method as in PMID 23455672; details: cited from earlier work
[6] = Time-dependent distribution of apocynin in plasma, urine and tissues after iv bolus injection (HPLC-MS/MS); format: in vivo, mouse
Procedure: All studies were performed in accordance with the protocols approved by the Home Office under the Animals (Scientific Procedures) Act 1986, UK. For the PKPD study, male CD1 mice (Charles River Ltd) at 12 weeks of age with a body weight range between 25 and 30 g were used for the study. Mice were fasted 12 hours before bolus iv injection of apocynin at 5 mg/kg body weight (dosing volume 5 mL/kg) via a lateral tail vein. Control mice were injected with vehicle (solvent of apocynin) at each time points. Four mice/per time points were sacrificed at 0, 1, 2.5, 5, 15, 30, 60 minutes and then at 3, 6, 12, and 24 hours after iv injection of apocynin. Blood samples were collected and centrifuged at 2000 g, 4°C for 10 minutes for plasma collection. Urine samples were collected from bladders. Tissues were harvested for further experiments.
The detection of apocynin in tissue sample was performed as described previously with some modifications. ^17 In brief, apocynin was detected using an Accela HPLC coupled to a linear ion‐trap tandem mass spectrometry (LTQ‐Orbitrap XL; Thermo‐Fisher Scientific) (HPLC‐MS/MS) in the negative ion mode. Phenacetin (500 ng/mL) was used as an internal standard in every vial. A reversed‐phase 50 × 2.1 mm ID, […], 175 Å pore C18 Hypersil Gold column (Thermo Scientific) was used with injection volume set at 5 µL for the separation of apocynin and phenacetin. Calibration curve used for PK analysis was constructed by spiking apocynin in mouse plasma using eight calibrators ranging from 1 to 10000 ng/mL with great reproducibility and R ^2 ≥ 0.996 for subsequent 5 separate experiments on different days. […] Limit of detection for apocynin was set up at signal to noise ratio ≥ 3, ^18 which is 1 ng/mL in our system. The limitation of quantification was set up at signal to noise ratio ≥ 10, which is 10 ng/mL in our system. Orbitrap component was used for the full scan spectra of apocynin and diapocynin.

[7] = CD1 mice, iv bolus 5 mg/kg, 5 minutes, per tissue weight

For `COc1cc(C(C)=O)ccc1O` [Apocynin, 4‐hydroxy‐3‐methoxyacetophenone], the “effect on brain Nox2 expression” value (Nox2) is listed as “significantly reduced”, the “apocynin recovered in unchanged form in urine” value [1] is listed as 80% and the LogBB ([2]; at 1 minute after iv injection) is listed as −0.1. The LogBB at 30 min ([2]; male, CD1, mouse, brain/plasma, 5 mg/kg, at 30 minutes after iv injection) was 1, the “effect on HFD-induced increase in body weight” value [3] was “significantly reduced” and the inhibition at 5 mg/kg ([4]; Mus musculus, 1 min, brain homogenates, starting at 1 minute) was 60.4 ± 25.4%. For the same molecule, the “duration of inhibition of brain O2·- production” value ([4]; brain homogenates) was “up to 60 minutes”, the “start of inhibition of brain O2·- production” value ([4]; brain homogenates) was 1 min and the “time at which inhibition of brain O2·- production became significant” value ([4]; brain homogenates) was 2.5 min. For the same molecule, the “time at which inhibition of brain O2·- production disappeared” value ([4]; brain homogenates) was 3 h, the “duration of inhibition of heart O2·- production” value ([4]; heart homogenates) was ~ 60 minutes and the “start of inhibition of heart O2·- production” value ([4]; heart homogenates) was 1 min. The “time at which inhibition of heart O2·- production became significant” value ([4]; heart homogenates) was 2.5 min, the “time at which inhibition of heart O2·- production disappeared” value ([4]; heart homogenates) was 3 h and the “duration of inhibition of liver O2·- production” value ([4]; liver homogenates) was ~ 60 minutes. For the same molecule, the “time at which inhibition of liver O2·- production disappeared” value ([4]; liver homogenates) was 3 h, the “onset of inhibition of liver O2·- production” value ([4]; liver homogenates, vs time 0 control) was no more than 1 min and the pKa value [5] was 8.17. The “time apocynin remained detectable in urine” value ([6]; CD1 mice, iv bolus 5 mg/kg) was “up to 12 hours”, the “plasma apocynin concentration (peak)” value ([6]; CD1 mice, iv bolus 5 mg/kg, 1 minute after injection) was 5494 ± 400 ng/mL and the “brain apocynin concentration (peak)” value ([6]; CD1 mice, iv bolus 5 mg/kg, 1 minute, per tissue weight) was 4603 ± 208 ng/g. The “heart apocynin peak concentration” value [6, 7] was 3161 ± 309 ng/g, the “liver apocynin peak concentration” value [6, 7] was 2853 ± 35 ng/g and the “urine apocynin peak concentration” value ([6]; CD1 mice, iv bolus 5 mg/kg, at 30 minutes) was 20492 ng/mL. For the same molecule, the “apocynin detection in urine” value ([6]; CD1 mice, iv bolus 5 mg/kg, until 5 minutes after injection) was “undetectable”, the “half-life in the brain compared with plasma” value ([6]; after iv injection) was “longer” and the renal clearance ([6]; after iv injection) was “high”. It also gave a concentration at 30 min ([6]; male, mouse, brain, CD1 mice, iv bolus 5 mg/kg, read-out: brain apocynin concentration) of 103 ± 4 ng/g, a concentration at 5 min ([6]; male, mouse, plasma, CD1 mice, iv bolus 5 mg/kg, 5 minutes) of 3240 ± 1560 ng/mL and a concentration at 15 min ([6]; male, mouse, plasma, CD1 mice, iv bolus 5 mg/kg, 15 minutes) of roughly 50 ng/mL. The concentration at 30 min ([6]; male, mouse, plasma, CD1 mice, iv bolus 5 mg/kg, read-out: plasma apocynin concentration) was roughly 10 ng/mL and the concentration at 3 h ([6]; male, mouse, urine, CD1 mice, iv bolus 5 mg/kg, 3 hours) was 230 ± 31 ng/mL.
